Here are results for five compounds from BindingDB's records for doi:10.1016/s0960-894x(03)00589-4 (University of California Irvine, 2003).

Usually IC50 stands for the midpoint of a concentration-inhibition curve.

The test is described as follows: Inhibitory concentration required against protein phosphatase 1 using pNPP assay.
On to `COC(=O)[C@@H](CCC(=O)N(C)C)NC(=O)[C@@H](C)[C@H](/C=C/C(C)=C/[C@H](C)[C@H](Cc1ccccc1)OC)NC(C)=O` [(R)-2-((4E,6E)-(2S,3S,8S,9S)-3-Acetylamino-9-methoxy-2,6,8-trimethyl-10-phenyl-deca-4,6-dienoylamino)-4-dimethylcarbamoyl-butyric acid methyl ester], for which the IC50 was > 100 µM. As for `CO[C@@H](Cc1ccccc1)[C@@H](C)/C=C(C)/C=C/[C@H](NC(C)=O)[C@H](C)C(=O)N[C@H](CCC(=O)N(C)C)C(=O)O` [(R)-2-((4E,6E)-(2S,3S,8S,9S)-3-Acetylamino-9-methoxy-2,6,8-trimethyl-10-phenyl-deca-4,6-dienoylamino)-4-dimethylcarbamoyl-butyric acid], the figure is > 100 µM; as for `CO[C@@H](Cc1ccccc1)[C@@H](C)/C=C(C)/C=C/[C@H](NC(C)=O)[C@H](C)C(=O)N[C@H](CCC(=O)N(C)CC(=O)N[C@H](C)C(=O)O)C(=O)O` [(R)-2-((4E,6E)-(2S,3S,8S,9S)-3-Acetylamino-9-methoxy-2,6,8-trimethyl-10-phenyl-deca-4,6-dienoylamino)-4-{[((R)-1-carboxy-ethylcarbamoyl)-methyl]-methyl-carbamoyl}-butyric acid], 400 µM.

In turn, `CO[C@@H](Cc1ccccc1)[C@@H](C)/C=C(C)/C=C/[C@H](NC(C)=O)[C@H](C)C(=O)N[C@H](CCC(=O)N(C)CC(=O)N[C@H](C)C(=O)N[C@@H](CC(C)C)C(=O)O)C(=O)O` [(S)-2-[(R)-2-(2-{[(R)-4-((4E,6E)-(2S,3S,8S,9S)-3-Acetylamino-9-methoxy-2,6,8-trimethyl-10-phenyl-deca-4,6-dienoylamino)-4-carboxy-butyryl]-methyl-amino}-acetylamino)-1-oxo-propylamino]-4-methyl-pentanoic acid] had an IC50 of 230 µM. As for `C=C(C(=O)N[C@H](C)C(=O)N[C@@H](CC(C)C)C(=O)O)N(C)C(=O)CC[C@@H](NC(=O)[C@@H](C)[C@H](/C=C/C(C)=C/[C@H](C)[C@H](Cc1ccccc1)OC)NC(C)=O)C(=O)O` [(S)-2-[(R)-2-(2-{[(R)-4-((4E,6E)-(2S,3S,8S,9S)-3-Acetylamino-9-methoxy-2,6,8-trimethyl-10-phenyl-deca-4,6-dienoylamino)-4-carboxy-butyryl]-methyl-amino}-acryloylamino)-1-oxo-propylamino]-4-methyl-pentanoic acid], the figure is 75 µM.
